Format in all cases: functional
The subject of one test is Escherichia coli. The experiment in a line: Minimum inhibitory concentration against Escherichia coli (CECT405).
The test system of the next test is Staphylococcus aureus. Briefly: Minimum Inhibitory concentration against Staphylococcus aureus (CECT240).
For another test, the system named is Proteus mirabilis. Briefly: Minimum inhibitory concentration against Proteus mirabilis (CECT170).
A further test concerns Pseudomonas aeruginosa. The experiment in a line: Minimum inhibitory concentration against Pseudomonas aeruginosa (CECT108).

Converted amounts (≈) assume the structure as drawn.

By MIC90 is commonly meant an inhibitory concentration at the 90% level, which refers to growth in some studies and to a panel of isolates in others. Higher therefore signals weaker potency. For the compound `O=C(N[C@H](CO)[C@H](O)c1ccc([N+](=O)[O-])cc1)C(Cl)Cl` [CHLORAMPHENICOL], the MIC90 with Escherichia coli was found to be 10 µg/mL (≈ 30.9 µM); with Staphylococcus aureus, 100 µg/mL (≈ 309 µM); in the test on Proteus mirabilis it was 100 µg/mL (≈ 309 µM); in the test with Pseudomonas aeruginosa, 100 µg/mL (≈ 309 µM).

For the compound SILYMARIN, the MIC90 in the test with Staphylococcus aureus turned out to be 80 µg/mL; with Proteus mirabilis it was 700 µg/mL; in the test on Pseudomonas aeruginosa, 200 µg/mL.

Take `COc1cc2ccc(=O)oc2c(O[C@@H]2O[C@H](CO)[C@@H](O)[C@H](O)[C@H]2O)c1O` [FRAXINE]: the MIC90 with Escherichia coli, with Staphylococcus aureus, in the test on Proteus mirabilis and in the test on Pseudomonas aeruginosa was 1450 µg/mL (≈ 3920 µM) throughout.

Turning to `COc1ccc([C@@H]2CC(=O)c3c(O)cc(O[C@@H]4O[C@H](CO)[C@@H](O)[C@H](O)[C@H]4O[C@@H]4O[C@@H](C)[C@H](O)[C@@H](O)[C@H]4O)cc3O2)cc1O` [NEOHESPERIDIN], the MIC90 against Escherichia coli, in the test on Staphylococcus aureus, against Proteus mirabilis and in the test on Pseudomonas aeruginosa was 300 µg/mL (≈ 491 µM) throughout.

As for `COc1ccc([C@@H]2CC(=O)c3c(O)cc(O[C@@H]4O[C@H](CO[C@@H]5O[C@@H](C)[C@H](O)[C@@H](O)[C@H]5O)[C@@H](O)[C@H](O)[C@H]4O)cc3O2)cc1O` [HESPERIDIN], the MIC90 against Staphylococcus aureus worked out at 8 µg/mL (≈ 13.1 µM); against Pseudomonas aeruginosa, 25 µg/mL (≈ 40.9 µM).

Regarding `O=C(O)c1cccnc1Nc1cccc(C(F)(F)F)c1` [NIFLUMIC ACID], the MIC90 is 1800 µg/mL (≈ 6380 µM) against Escherichia coli, 160 µg/mL (≈ 567 µM) against Staphylococcus aureus and 1800 µg/mL (≈ 6380 µM) against Proteus mirabilis.

For the compound `CC(=O)Nc1cc(C)cc(/N=N/c2cc([N+](=O)[O-])cc([N+](=O)[O-])c2O)c1O`, the MIC90 against Escherichia coli, in the test with Staphylococcus aureus, with Proteus mirabilis and with Pseudomonas aeruginosa was 130 µg/mL (≈ 346 µM) each time.

`O=c1c(O)c(-c2ccc(O)cc2O)oc2cc(O)cc(O)c12` [MORIN]: the MIC90 against Escherichia coli stood at 1380 µg/mL (≈ 4570 µM); in the test on Staphylococcus aureus it was 120 µg/mL (≈ 397 µM); in the test with Proteus mirabilis, 120 µg/mL (≈ 397 µM); against Pseudomonas aeruginosa it was 120 µg/mL (≈ 397 µM).
